Results taken from the supplement of paper PMC13380429.

Tests used:
Conditions in all cases: 72 h
Caco-2 [1] = assay: cell viability relative to DMSO; higher = less toxic
Calu-3 [2] = assay: as above
HepG2 [3] = assay: as above
U2OS [4] = assay: as above
Vero E6 [5] = assay: as above
Calu-3 [6] = assay: relative viability EC50 (midpoint between 100% and the lowest measured viability); higher = less toxic
U2OS [7] = assay: as above
Vero E6 [8] = assay: as above
Caco-2 [9] = assay: drug sensitivity score (DSS) for viability; higher = more toxic; extreme values may be limits of the assay
Calu-3 [10] = assay: as above
HepG2 [11] = assay: as above
U2OS [12] = assay: as above
Vero E6 [13] = assay: as above
HepG2 [14] = assay: relative viability EC50 (midpoint between 100% and the lowest measured viability); higher = less toxic
Caco-2 [15] = assay: as above

| Structure (SMILES) | cell viability (Caco-2 [1]; 1 nM) | cell viability (Caco-2 [1]; 10 nM) | cell viability (Caco-2 [1]; 100 nM) | cell viability (Caco-2 [1]; 1000 nM) | cell viability (Caco-2 [1]; 10000 nM) | cell viability (Calu-3 [2]; 1 nM) | cell viability (Calu-3 [2]; 10 nM) | cell viability (Calu-3 [2]; 100 nM) | cell viability (Calu-3 [2]; 1000 nM) | cell viability (Calu-3 [2]; 10000 nM) | cell viability (HepG2 [3]; 1 nM) | cell viability (HepG2 [3]; 10 nM) | cell viability (HepG2 [3]; 100 nM) | cell viability (HepG2 [3]; 1000 nM) | cell viability (HepG2 [3]; 10000 nM) | cell viability (U2OS [4]; 1 nM) | cell viability (U2OS [4]; 10 nM) | cell viability (U2OS [4]; 100 nM) | cell viability (U2OS [4]; 1000 nM) | cell viability (U2OS [4]; 10000 nM) | cell viability (Vero E6 [5]; 1 nM) | cell viability (Vero E6 [5]; 10 nM) | cell viability (Vero E6 [5]; 100 nM) | cell viability (Vero E6 [5]; 1000 nM) | cell viability (Vero E6 [5]; 10000 nM) | relative viability EC50 (Calu-3 [6]) | relative viability EC50 (U2OS [7]) | relative viability EC50 (Vero E6 [8]) | drug sensitivity score (Caco-2 [9]) | drug sensitivity score (Calu-3 [10]) | drug sensitivity score (HepG2 [11]) | drug sensitivity score (U2OS [12]) | drug sensitivity score (Vero E6 [13]) | relative viability EC50 (HepG2 [14]) | relative viability EC50 (Caco-2 [15]) |
| --- | --- | --- | --- | --- | --- | --- | --- | --- | --- | --- | --- | --- | --- | --- | --- | --- | --- | --- | --- | --- | --- | --- | --- | --- | --- | --- | --- | --- | --- | --- | --- | --- | --- | --- | --- |
| O=C1N=C(NCc2cccs2)S/C1=C\c1ccc2ncccc2c1 [Ro-3306] | 89.1% | 105% | 97.2% | 100% | 74.2% | 101% | 113% | 94% | 103% | 104% | 93.2% | 77.7% | 90.2% | 62.2% | 51% | 97.9% | 98.5% | 97.1% | 98.3% | 81.1% | 97% | 97.4% | 98.5% | 93.8% | 80.9% | > 10 µM | > 10 µM | > 10 µM | 1 | 0 | 9.2 | 0.7 | 1.1 |  |  |
| CC(=O)Oc1ccccc1C(=O)Nc1ncc([N+](=O)[O-])s1 [nitazoxanide] | 97.3% | 98.8% | 102% | 104% | 61.7% | 102% | 103% | 107% | 99.1% | 98.8% | 97.1% | 95.6% | 94.5% | 91% | 65.3% | 99.2% | 98.5% | 101% | 93.3% | 91.4% | 98.2% | 98.7% | 106% | 102% | 96.9% | > 10 µM | > 10 µM | > 10 µM | 1.6 | 0 | 2.8 | 0 | 0 |  |  |
| CC1(C)CC(Oc2ccc(-c3ccc(-c4cn[nH]c4)cc3O)nn2)CC(C)(C)N1 [LMI070] | 95.1% | 108% | 106% | 94.6% | 72.5% | 96.7% | 97.1% | 92.7% | 74.5% | 85.4% | 107% | 104% | 110% | 51.8% | 12.4% | 96.4% | 102% | 103% | 93.5% | 6.6% | 101% | 102% | 104% | 48.5% | 5.1% |  | 2.6 µM | 0.935 µM | 2 | 2.9 | 10.7 | 6.2 | 11.5 | 0.926 µM |  |
| O=C(NCC(=O)N1CCCC1)Nc1ccc2cnccc2c1 [SGC-707] | 98.1% | 97% | 95.7% | 100% | 93.1% | 94.2% | 95.8% | 105% | 86.2% | 110% | 93.6% | 117% | 98.4% | 103% | 97.3% | 99.2% | 93% | 103% | 97.3% | 96.8% |  |  |  |  |  | > 10 µM | > 10 µM |  | 0 | 0 | 0 | 0 |  | > 10 µM | > 10 µM |
| CCCOc1ccc2c(c1)CC[C@@H]1[C@@H]2CC[C@]2(C)[C@@H](OC)CC[C@@H]12 [promestriene] | 97.9% | 97.4% | 97.7% | 90.4% | 98.5% | 99% | 90.9% | 97.5% | 92.3% | 104% | 102% | 107% | 103% | 93% | 97.9% | 93.5% | 105% | 96.2% | 96.5% | 99.9% |  |  |  |  |  | > 10 µM | > 10 µM |  | 0 | 0 | 0 | 0 |  | > 10 µM | > 10 µM |
| Cc1nc(NC(=O)N2CCC[C@H]2C(N)=O)sc1-c1ccnc(C(C)(C)C(F)(F)F)c1 [alpelisib] | 107% | 102% | 89.8% | 91.5% | 52.3% | 87.4% | 93.8% | 88.4% | 60.8% | 25.7% | 102% | 99.7% | 89.6% | 71% | 60.1% | 102% | 93.3% | 96.8% | 89.9% | 73.7% | 104% | 104% | 98.4% | 94.7% | 80.3% | 0.743 µM |  | > 10 µM | 3.9 | 9.2 | 6.1 | 1.8 | 1.2 |  |  |
| CCN1C[C@]2(OC(=O)c3ccccc3NC(C)=O)CC[C@H](OC)[C@@]34[C@@H]2C[C@@H]([C@@H]13)[C@@]1(O)C[C@H](OC)[C@H]2C[C@@H]4[C@]1(O)[C@H]2OC [lappaconite] | 87.7% | 99% | 85.5% | 95.2% | 89.8% | 103% | 86.1% | 94.1% | 102% | 106% | 101% | 97.1% | 103% | 100% | 107% | 103% | 103% | 98.1% | 99.1% | 94.4% |  |  |  |  |  | > 10 µM | > 10 µM |  | 0 | 0 | 0 | 0 |  | > 10 µM | > 10 µM |
| Cc1ccc(S(=O)(=O)NCl)cc1 [chloramine-T] | 99.5% | 104% | 92.2% | 101% | 99.2% | 102% | 107% | 92.2% | 101% | 92.6% | 101% | 98.5% | 104% | 102% | 102% | 105% | 97.7% | 105% | 99.1% | 99.4% |  |  |  |  |  | > 10 µM | > 10 µM |  | 0 | 0 | 0 | 0 |  | > 10 µM | > 10 µM |
| CN[C@@H](C)[C@H]1[C@H](O)C[C@@]2(C)[C@@H]3CC[C@H]4C(C)(C)[C@@H](NC)CC[C@@]45C[C@@]35CC[C@]12C [cyclovirobuxin-D] | 101% | 92.1% | 91.2% | 90.1% | 90.6% | 102% | 94.7% | 98.6% | 99.2% | 102% | 96.3% | 99.5% | 91.5% | 99% | 99.1% | 101% | 96.3% | 99.4% | 99.8% | 97.6% |  |  |  |  |  | > 10 µM | > 10 µM |  | 0 | 0 | 0 | 0 |  | > 10 µM | > 10 µM |
| CCOc1cc(C(=O)Nc2ccc(Cl)c(-c3nc4ccccc4[nH]3)c2)cc(OCC)c1OCC [SANT-2] | 94.6% | 102% | 89.4% | 91.6% | 57.8% | 103% | 111% | 97.5% | 94% | 75.7% | 102% | 94.4% | 99.6% | 90.9% | 71.5% | 94.2% | 98.8% | 98.3% | 103% | 90% | 97.4% | 93.7% | 99.4% | 95.2% | 92.6% | > 10 µM | > 10 µM | > 10 µM | 3.4 | 1.7 | 2.5 | 0 | 0 |  |  |
| COc1cc2c(cc1OC)CN(C(=O)/C=C/c1c(-c3ccccc3)n(C)c3ncccc13)CC2 [SIS3] | 93.9% | 94.5% | 88.8% | 96.5% | 71.1% |  |  |  |  |  | 98.9% | 106% | 106% | 106% | 106% | 99% | 101% | 94.9% | 99.9% | 96.2% | 100% | 93.3% | 98.8% | 98.2% | 100% |  | > 10 µM | > 10 µM | 1.8 |  | 0 | 0 | 0 | > 10 µM |  |
| CN1C(=O)CC[C@H]1c1cccnc1 [cotinine] | 71.1% | 74.2% | 84.3% | 83% | 106% |  |  |  |  |  | 104% | 99.4% | 106% | 105% | 96.2% | 94.7% | 97.2% | 92.9% | 95.7% | 102% | 95.9% | 92.8% | 94% | 95.7% | 106% |  | > 10 µM | > 10 µM | 5.4 |  | 0 | 0 | 0 | > 10 µM |  |
